{"source": "patent US20250099508A1", "about": "“SYSTEMS, CELL LINES AND METHODS OF PRODUCING AND USING THE SAME” (THE REGENTS OF THE UNIVERSITY OF CALIFORNIA, priority 2022, published 2025)", "key": {"[1]": {"test_system": "hESC-derived stage 2 enteric ganglioid NO neurons", "details": "cFOS flow cytometry, cultures treated with epinephrine"}, "[2]": {"test_system": "enteric ganglioid neurons", "details": "MEA neuronal firing measurements"}, "mouse colon": {"test_system": "mouse colon", "test": "Ex vivo colonic motility assay (organ bath, GIMM)", "details": "for CMMC intervals at the 75th percentile relative to the untreated condition: five consecutive 10-min acquisitions, mouse colon ex vivo"}, "[3]": {"test_system": "stage 1 enteric ganglioids", "test": "PP121 vs control gene expression correlation (snRNA-seq)", "type": "cell-based, human", "source_text": "To compare PP121 treated and untreated stage 1 enteric ganglioids in single cell resolution, we performed snRNA-seq and combined both datasets. […] FIG. S26 data not shown, but it describes PP121 treatment enriches NO neurons without affecting their overall cellular diversity.\nTo compare the gene expression of control and PP121 treated cell types, neuronal subtypes and NO neuron subtypes, a subset dataset of each cell type and subtype annotation was first created. For each subset, the non-imputed average expression of all genes was then calculated for the control and PP121 treated cells using the “AverageExpression” function and natural log transformed for plotting. R^2 values comparing the control and PP121 natural log expression values were calculated from linear modeling using the “y ˜x” formula. cFOS expression screening"}, "VEGFRs": {"test_system": "VEGFRs", "details": "cited from earlier work"}, "[4]": {"test_system": "stage 1 NOS1::GFP enteric ganglioids", "test": "NO neuron induction in stage 1 enteric ganglioids measured by flow cytometry (NOS1::GFP)", "type": "cell-based, human", "details": "for NO neuron induction / NO neuron proportions: RTK ligand treatment, stage 1 enteric ganglioids", "source_text": "(§1) To evaluate the potential of hPSC-derived cultures to model human ENS development, we set out to define the mechanism of NO neuron specification in vitro. Searching for pathways that regulate NO neuron differentiation, we performed a high-throughput small molecule screen. Identifying distinct pathways and chemical modulators that promote NO neuron induction could provide insights on NO neuron development and offer a strategy for the derivation of NO neuron enriched ENS cultures. • To identify compounds that induce NO neuron differentiation, we treated enteric crestospheres with 1694 compounds in the Selleck inhibitor library™ and identified 12 hit compounds that increased the proportion of NOS1^+ neurons by at least eight folds (FIG. 6A, FIGS. S25A and B). FIG. S25 data not shown, but it describes that small molecule high-throughput screening identifies compounds that enrich NO neurons in hESC-derived ENS cultures. […] After clustering the predicted protein targets, common patterns emerged for a subset of compounds.\nTo determine the mechanism by which PP121 induced NO neuron enrichment in ganglioids, we used a combination of pharmacological and genetic approaches. […] Our crestosphere snRNA-seq analysis confirmed the expression of PDGFRA, PDGFRB, ERBB2 and ERBB3 while the mRNA for VEGFRs were not detectable (FIG. 6L). We evaluated the induction efficiency of NO neurons in response to PDGF (PDGFR agonist), sunitinib (PDGFR and VEGFR antagonist), NRG1 (ERBBs agonist) and sapitinib (ERBBs antagonist) (FIG. 6M). […] To genetically confirm the role of PDGFR signaling in NO neuron induction, we used CRISPR-Cas9 to knock-out PDGFRA and PDGFRB in our enteric crestospheres and analyzed the percentage of NO neurons in stage 1 ganglioids. NO neurons were […] in both PDGFRA and PDGFRB knock-out cultures further confirming the PP121 mechanism of action (FIGS. 6O and P)."}, "EGFRs": {"test_system": "EGFRs", "details": "cited from earlier work"}, "[5]": {"test_system": "H9 hESC-derived enteric crestospheres (NOS1+ neurons)", "test": "High-throughput screening to identify compounds that enrich NO neurons", "type": "cell-based, human", "details": "1694 compounds, 1 μM, D15-D20, NOS1 staining at day 40", "source_text": "as §1\nDay 15 H9 hESC-derived enteric crestospheres were dissociated into single cells (accutase, Stemcell Technologies, 07920, 30 min, 37° C.), resuspended in ENC medium and were transferred into 384-well plates. Plates were incubated for 2 hours for cells to attach. […]"}, "PDGFRs": {"test_system": "PDGFRs", "details": "cited from earlier work"}, "[6]": {"details": "6-min treatment, all five replicates"}}}
{"compound": "CNC[C@H](O)c1ccc(O)c(O)c1", "note": "[Epinephrine, epinephrine]", "values": [{"measurement": "neuronal cFOS expression", "setting": "[1]", "result": "induced neuronal cFOS expression"}, {"measurement": "electrical firing of ganglioid neurons", "setting": "[2]", "result": "increased electrical firing"}]}
{"compound": "Cc1cccc(C#Cc2ccccc2)n1", "note": "[MPEP]", "values": [{"measurement": "CMMC intervals at the 75th percentile relative to the untreated condition", "setting": "mouse colon", "result": "promising effects on lowering CMMC intervals"}]}
{"compound": "Nc1ncnc2c1c(-c1cnc3[nH]ccc3c1)nn2C1CCCC1", "note": "[PP121]", "values": [{"measurement": "abundance of neuronal subtypes", "setting": "[3]; merged control and PP121 treated neurons, snRNA-seq", "result": "enriched cultures for neuronal subtypes EN D and H"}, {"measurement": "abundance of nitrergic neuron subtypes", "setting": "[3]; merged control and PP121 treated nitrergic neurons", "result": "enrichment for Nitrergic B"}, {"measurement": "inhibitory activity on VEGFRs", "setting": "VEGFRs", "result": "known inhibitory activity"}, {"measurement": "NOS1::GFP induction efficiency by treatment window", "setting": "[4]; five-day treatment at various time points, GFP signal in stage 1 ganglioids", "result": "highest induction efficiency for cells treated during day 15-20"}, {"measurement": "NO neuron induction efficiency, dose dependence", "setting": "[4]; flow cytometry", "result": "dose-dependent effect"}, {"measurement": "inhibitory activity on EGFRs", "setting": "EGFRs", "result": "known inhibitory activity"}, {"measurement": "increase of the proportion of NOS1+ neurons relative to vehicle (DMSO)", "setting": "[5]", "result": "highest % NOS1^+ fold increase in this subset of compounds"}, {"measurement": "inhibitory activity on PDGFRs", "setting": "PDGFRs", "result": "known inhibitory activity"}]}
{"compound": "O=C1CCc2ccc(OCCCCN3CCN(c4cccc(Cl)c4Cl)CC3)cc2N1", "note": "[aripiprazole]", "values": [{"measurement": "CMMC intervals at the 75th percentile relative to the untreated condition", "setting": "mouse colon", "result": "promising effects on lowering CMMC intervals"}]}
{"compound": "Cc1cccc([C@H](C)c2cnc[nH]2)c1C", "note": "[dexmedetomidine]", "values": [{"measurement": "average duration of LCEs", "setting": "mouse colon; [6]", "result": "increasing trend in their average duration"}, {"measurement": "total number of longitudinal contractile events (LCEs)", "setting": "mouse colon; [6]", "result": "decrease in the total number of LCEs"}, {"measurement": "effects on LCEs after the drug removal", "setting": "mouse colon; Krebs wash after drug", "result": "reversed after the drug removal"}, {"measurement": "effects on LCEs with L-NAME co-treatment", "setting": "mouse colon; L-NAME co-treatment", "result": "blocked by L-NAME co-treatment"}, {"measurement": "effect on CMMC intervals with simultaneous L-NAME", "setting": "mouse colon; dexmedetomidine+L-NAME simultaneously", "result": "absent"}, {"measurement": "CMMC intervals at the 75th percentile relative to the untreated condition", "setting": "mouse colon", "result": "promising effects on lowering CMMC intervals"}, {"measurement": "CMMC intervals", "setting": "mouse colon; sequential 6-min acquisitions, five sample pairs, drug alone", "result": "decreased CMMC intervals in four out of five colon samples"}, {"measurement": "slow waves (SW)", "setting": "mouse colon; sequential drug treatment", "result": "not affected"}]}
{"compound": "O=C1CCC[C@@H]2[C@H]3CCCN4CCC[C@@H](CN12)[C@@H]34", "note": "[matrine]", "values": [{"measurement": "CMMC intervals at the 75th percentile relative to the untreated condition", "setting": "mouse colon", "result": "promising effects on lowering CMMC intervals"}]}
{"compound": "CNC(=O)CN1CCC(Oc2cc3c(Nc4cccc(Cl)c4F)ncnc3cc2OC)CC1", "note": "[sapitinib]", "values": [{"measurement": "NO neuron induction / NO neuron proportions", "setting": "[4]", "result": "no significant effect"}]}
{"compound": "PDGF", "values": [{"measurement": "NO neuron induction / NO neuron proportions", "setting": "[4]", "result": "lower"}]}
